{"source": "patent US20260216194A1", "about": "(Cyrano Therapeutics, Inc., priority 2020, published 2026)", "assay_type_in_all_cases": "in vivo, human", "key": {"[1]": {"tested_on": "patient who had loss of taste and smell from COVID-19", "test": "Psychophysical smell test, forced-choice three-stimuli stepwise-staircase technique (detection and recognition thresholds for four odors)", "excerpt": "The Patient initially reported their sensory dysfunction as either loss of taste (i.e., flavor) and/or smell function. This subjective response was documented by objective psychophysical measurements of olfactory function administered to each patient by use of a forced-choice, three-stimuli, stepwise-staircase technique in a fixed, controlled design (1, 2). Efficacy of this technique and results of testing were previously documented in a double-blind clinical trial (2). Four odors were used; they were pyridine (dead-fish odor), nitrobenzene (bitter-almond odor), thiophene (petroleum-like odor) and amyl acetate (banana-oil odor). Detection thresholds (DT), and recognition thresholds (RT) values for each odor were determined as previously described (1, 2). Thresholds were converted into bottle units (BU) as previously described (2) and results reported as M of correct responses for each odor in each treatment group. References: (1) Henkin, R. I. Evaluation and treatment of human olfactory dysfunction, in Otolaryngology (English, G. M. Ed.), Lippincott, Philadelphia, 1993, Vol. 2, pp. 1-86. (2) Henkin, R. I., Schecter, P. J., Friedewald, W. T., DeMets, D. L., Raff, M. S. A double blind study of the effects of zinc sulfate on taste and smell dysfunction. Amer. J. Med. Sci. 1976; 272:285-299.\n(§1) Theophylline was administered to a patient who had loss of taste and smell from COVID-19. A formulation containing 80 μg of theophylline was administered via two actuations from nasal spray device once per day. Prior to the initial administration of theophylline, a baseline smell test was performed. A follow-up smell test was performed 3 months after the initial administration. […] The patient's detection threshold (DT) and recognition threshold (RT) for pyridine (Pyr), nitrobenzene (NO2B), thiophene (Thio) and amyl acetate (AA) was determined before treatment (pre) and after treatment (3M). In all four odorant tests, the patient's detection threshold and recognition threshold improved. An improvement of 1 bottle unit means that a patient could detect and/or recognize an odorant that was 10 times lower in concentration, when compared to baseline. For example, the recognition threshold (RT) of AA improved by 8 bottle units, also equivalent to an improvement of 8 orders of magnitude. In this case, the patient could detect a concentration of AA that was 108 lower in concentration. Bottle unit numbers that are 5 or lower are considered to be in the range of normal."}, "[2]": {"tested_on": "patient who had loss of taste and smell from COVID-19", "test": "Side effects during intranasal theophylline treatment", "conditions": "80 μg theophylline via two actuations from nasal spray device once per day, 3 months", "description": "as §1"}, "[3]": {"tested_on": "patient diagnosed or previously diagnosed with COVID-19 and having at least partial smell or taste loss", "test": "Example 1: intranasal theophylline formulation in a patient with smell or taste loss associated with COVID-19", "description": "A patient diagnosed or previously diagnosed with COVID-19 and having at least partial smell or taste loss associated with COVID-19 is treated with an intranasally administered a formulation comprising theophylline, which is given once per day, in each naris, for about 30 days, 60 days, or 90 days.\nAdministration of the formulation produces an increase in the patient's sonic hedgehog levels or cyclic nucleotide levels within about 30 days, 60 days, or 90 days."}, "[4]": {"conditions": "3 months after initial administration, 80 μg theophylline intranasal once per day, baseline (Pre) 10, 5 or lower is normal"}, "[5]": {"conditions": "3 months after initial administration, 80 μg theophylline intranasal once per day, baseline (Pre) 11, 5 or lower is normal"}, "[6]": {"conditions": "3 months after initial administration, 80 μg theophylline intranasal once per day, baseline (Pre) 12, 5 or lower is normal"}}}
{"molecule": "Cn1c(=O)c2[nH]cnc2n(C)c1=O", "note": "[theophylline]", "values": [{"measurement": "Detection threshold (DT), thiophene (Thio)", "setting": "[1]; [4]", "value": 4, "unit": "bottle units"}, {"measurement": "Recognition threshold (RT), thiophene (Thio)", "setting": "[1]; [4]", "value": 4, "unit": "bottle units"}, {"measurement": "Detection threshold (DT), amyl acetate (AA)", "setting": "[1]; [5]", "value": 4, "unit": "bottle units"}, {"measurement": "Detection threshold (DT), nitrobenzene (NO2B)", "setting": "[1]; [5]", "value": 9, "unit": "bottle units"}, {"measurement": "Detection threshold (DT), pyridine (Pyr)", "setting": "[1]; [5]", "value": 7, "unit": "bottle units"}, {"measurement": "Recognition threshold (RT), pyridine (Pyr)", "setting": "[1]; [5]", "value": 7, "unit": "bottle units"}, {"measurement": "Recognition threshold (RT), amyl acetate (AA)", "setting": "[1]; [6]", "value": 4, "unit": "bottle units"}, {"measurement": "Recognition threshold (RT), nitrobenzene (NO2B)", "setting": "[1]; [6]", "value": 9, "unit": "bottle units"}, {"measurement": "Improvement of recognition threshold (RT) of AA", "setting": "[1]; 3 months vs baseline, 1 bottle unit = 10 times lower concentration", "value": 8, "unit": "bottle units"}, {"measurement": "Detection threshold and recognition threshold in all four odorant tests", "setting": "[1]; 3 months vs baseline, pyridine, nitrobenzene, thiophene, amyl acetate", "value": "improved"}, {"measurement": "Side effects", "setting": "[2]", "value": "No side effects were reported"}, {"measurement": "Patient's ability to taste and smell", "setting": "[3]; intranasal once per day in each naris for about 30, 60 or 90 days", "value": "significant increase"}, {"measurement": "Patient's sonic hedgehog levels or cyclic nucleotide levels", "setting": "[3]; intranasal once per day in each naris, within about 30 days, 60 days, or 90 days", "value": "increase"}]}
